US12448369B2 (Edgewise Therapeutics, Inc., priority 2023, dated 2025)

What was measured:
[1] = tested on: Rabbit Psoas myofibrils (skeletal myosin ATPase); experiment: Myofibril ATPase assay, rabbit psoas (skeletal) myofibrils; assay type: biochemical; conditions: rabbit psoas myofibrils
Outline: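 Readout: A340 decline from NADH oxidation, PK/LDH-coupled to ADP release; kinetic reads over 75 min. Buffer: pCa (PIPES, CaCl2, EGTA), pH 7.0. Linear-regression slopes vs vehicle, 4PL fit; reported as concentration giving 75% (Y75) or 125% (Y125) of vehicle activity.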

[2] = tested on: Porcine atria myofibrils (atrial myosin ATPase); experiment: Myofibril ATPase assay, porcine atria myofibrils; assay type: biochemical; conditions: porcine atria myofibrils
Outline: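 Coupled PK-LDH readout, NADH loss at 340 nm, kinetic 75 min. Porcine atria myofibrils, pCa buffer (PIPES/CaCl2/EGTA, pH 7.0). Slopes (mAU/min) normalized to vehicle = 100%, 4-parameter fit; Y75 or Y125 reported.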

[3] = biological target: T1, Porcine ventricle myofibrils (ventricular myosin ATPase) (Sus scrofa, UniProt P79293); experiment: Myofibril ATPase assay, porcine ventricle myofibrils; assay type: biochemical, porcine (Yucatan minipigs); conditions: porcine ventricle myofibrils
T1 construct: Myofibrils from porcine cardiac muscle was isolated from the left ventricle of Yucatan minipigs; tissue Exemplar Genetics; host or cells: left ventricle of Yucatan minipigs, myofibrils prepared in house
Outline: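 Read-out: A340 kinetic, NADH consumption coupled to ADP via PK-LDH, 75 min. Yucatan minipig LV myofibrils, pCa buffer (PIPES/CaCl2/EGTA, pH 7.0). Linear-regression slope (mAU/min), vehicle = 100%, 4PL fit; Y75 or Y125 reported.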

[4] = Y75 value (75% activity relative to no compound)
[5] = ‡ Y125 value, not a Y75 value (125% activity relative to no compound)

T1 sequence (P79293 whole entry): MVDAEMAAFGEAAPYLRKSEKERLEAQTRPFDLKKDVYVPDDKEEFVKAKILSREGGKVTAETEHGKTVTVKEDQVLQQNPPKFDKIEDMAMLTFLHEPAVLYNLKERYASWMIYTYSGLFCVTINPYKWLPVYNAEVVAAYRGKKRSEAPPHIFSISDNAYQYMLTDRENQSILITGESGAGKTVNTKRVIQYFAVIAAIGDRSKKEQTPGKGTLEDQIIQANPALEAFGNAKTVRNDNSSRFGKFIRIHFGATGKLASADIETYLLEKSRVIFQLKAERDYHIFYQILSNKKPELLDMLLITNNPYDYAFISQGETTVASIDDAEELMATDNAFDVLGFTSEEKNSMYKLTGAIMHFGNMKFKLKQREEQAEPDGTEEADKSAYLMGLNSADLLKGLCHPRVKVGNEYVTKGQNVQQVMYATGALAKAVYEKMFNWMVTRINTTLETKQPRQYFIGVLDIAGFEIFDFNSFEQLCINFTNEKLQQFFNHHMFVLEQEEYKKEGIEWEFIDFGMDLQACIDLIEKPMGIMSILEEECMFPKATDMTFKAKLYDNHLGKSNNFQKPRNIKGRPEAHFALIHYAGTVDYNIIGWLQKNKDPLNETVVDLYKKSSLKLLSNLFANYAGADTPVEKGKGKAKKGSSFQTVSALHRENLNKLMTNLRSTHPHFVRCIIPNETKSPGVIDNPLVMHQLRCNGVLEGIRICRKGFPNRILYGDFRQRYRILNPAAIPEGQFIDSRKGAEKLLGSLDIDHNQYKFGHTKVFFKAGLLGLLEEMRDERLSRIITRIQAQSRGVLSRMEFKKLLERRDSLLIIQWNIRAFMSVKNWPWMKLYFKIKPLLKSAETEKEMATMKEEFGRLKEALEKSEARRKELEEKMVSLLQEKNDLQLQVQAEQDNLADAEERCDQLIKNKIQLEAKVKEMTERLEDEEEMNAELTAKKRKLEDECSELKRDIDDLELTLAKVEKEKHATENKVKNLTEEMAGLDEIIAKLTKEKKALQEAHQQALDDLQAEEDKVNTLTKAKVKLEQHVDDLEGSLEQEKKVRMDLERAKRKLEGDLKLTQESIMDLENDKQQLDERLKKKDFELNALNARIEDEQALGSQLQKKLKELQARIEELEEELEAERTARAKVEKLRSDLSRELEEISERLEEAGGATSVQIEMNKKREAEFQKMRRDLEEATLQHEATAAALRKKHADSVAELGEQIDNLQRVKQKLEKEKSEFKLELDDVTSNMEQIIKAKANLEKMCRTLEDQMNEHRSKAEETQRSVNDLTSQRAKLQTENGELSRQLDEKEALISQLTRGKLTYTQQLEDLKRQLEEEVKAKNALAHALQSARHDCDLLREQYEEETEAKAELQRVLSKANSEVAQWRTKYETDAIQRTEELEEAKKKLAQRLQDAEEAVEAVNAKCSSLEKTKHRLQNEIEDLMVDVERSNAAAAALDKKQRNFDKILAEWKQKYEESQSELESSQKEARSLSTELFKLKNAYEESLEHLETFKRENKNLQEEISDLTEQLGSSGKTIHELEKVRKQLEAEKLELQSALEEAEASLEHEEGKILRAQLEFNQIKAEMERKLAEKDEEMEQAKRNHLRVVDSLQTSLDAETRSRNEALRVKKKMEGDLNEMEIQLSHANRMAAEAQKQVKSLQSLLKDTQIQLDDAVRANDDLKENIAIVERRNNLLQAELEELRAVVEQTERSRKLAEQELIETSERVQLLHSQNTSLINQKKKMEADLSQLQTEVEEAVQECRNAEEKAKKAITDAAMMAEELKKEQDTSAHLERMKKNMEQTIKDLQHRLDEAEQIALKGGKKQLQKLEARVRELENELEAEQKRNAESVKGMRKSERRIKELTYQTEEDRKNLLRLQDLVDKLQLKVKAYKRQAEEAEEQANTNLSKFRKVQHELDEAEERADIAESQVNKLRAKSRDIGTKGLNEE

Compound	Skeletal EC25 ([1]; Y75 value (no ‡ mark))	Atrial EC25 ([2]; Y75 value (no ‡ mark))	Ventricular EC25 ([3]; Y75 value (no ‡ mark))	Skeletal EC25 ([1]; Y75 value)	Atrial EC25 [2, 4]	Ventricular EC25 ([3]; Y75 value)	also measured
C[C@H](NC(=O)C1(c2cc3c(F)c(F)ccc3[nH]c2=O)CC1)c1ccc(F)cc1F [compound 4814]	0.19 µM	0.23 µM	1.31 µM	–	–	–	–
Cc1c(CC(=O)N[C@@H](CO)c2ccc(C#N)cc2F)c(=O)[nH]c2ccc(C(F)(F)F)nc12 [compound 219]	–	–	–	0.14 µM	0.12 µM	7.16 µM	–
C[C@H](NC(=O)Cc1cc2c(OCC(F)F)nccc2[nH]c1=O)c1ccc(F)cc1F [compound 389]	–	–	–	0.25 µM	0.71 µM	100.00 µM	–
Cc1nccc2[nH]c(=O)c(CC(=O)N[C@H]3CCc4cc(C#N)cnc43)c(C)c12 (single isomer, unassigned) [compound 234]	–	–	–	20.28 µM	100.00 µM	100.00 µM	–
Cc1c(CC(=O)N[C@H](C)c2ccc(C#N)cn2)c(=O)[nH]c2ccnc(C(F)(F)F)c12 [compound 155]	–	–	–	1.24 µM	6.06 µM	62.81 µM	–
Cc1cc(F)ccc1[C@H](C)NC(=O)Cc1c(C)c2c(C)nccc2[nH]c1=O [compound 407]	–	–	–	0.02 µM	0.10 µM	0.33 µM	–
Cc1c(C(F)(F)C(=O)N[C@@H](C)c2cc(C#N)ccn2)c(=O)[nH]c2ccc(F)cc12 (single isomer, unassigned) [compound 2576]	76.36 µM	38.95 µM	100.00 µM	–	–	–	–
Cc1c(CC(=O)N[C@@H](C)c2cnc(C#N)cn2)c(=O)[nH]c2ccc(F)cc12 [compound 1109]	0.05 µM	0.16 µM	0.36 µM	–	–	–	–
Cc1nc(C#N)ncc1[C@H](C)NC(=O)Cc1cc2cc(F)c(F)cc2[nH]c1=O [compound 1097]	0.15 µM	1.11 µM	1.56 µM	–	–	–	–
Cc1nc(C#N)cnc1[C@H](C)NC(=O)Cc1c(C)c2nc(C(F)(F)F)ccc2[nH]c1=O (single isomer, unassigned) [compound 139]	–	–	–	0.02 µM	0.08 µM	0.18 µM	–
Cc1c(CC(=O)N[C@H](C)c2ncc(C#N)cn2)c(=O)[nH]c2ccc(F)c(C3CC3)c12 (single isomer, unassigned) [compound 2059]	1.09 µM	–	56.97 µM	–	–	–	Atrial EC25 [2, 5]: 100.00‡ μM
Cc1c(CC(=O)N[C@@H](C)c2ccc(F)cc2F)c(=O)[nH]c2ccc(OC(F)(F)F)nc12 [compound 359]	–	–	–	0.04 µM	0.11 µM	100.00 µM	–
Cc1c(CC(=O)N[C@H](CO)c2ccc(C#N)cc2F)c(=O)[nH]c2ccc(C#N)nc12 [compound 220]	–	–	–	100.00 µM	100.00 µM	100.00 µM	–
Cc1c(C2(C(=O)N[C@H](C)c3cccc(C#N)n3)CC2)c(=O)[nH]c2ccc(F)cc12 (single isomer, unassigned) [compound 2579]	100.00 µM	100.00 µM	100.00 µM	–	–	–	–
Cc1nccc2[nH]c(=O)c(CC(=O)N[C@H](C)c3ccc(C#N)cc3F)c(F)c12 [compound 148]	–	–	–	2.55 µM	1.99 µM	3.02 µM	–
CC[C@@H](NC(=O)Cc1c(C)c2c(C)c(F)ccc2[nH]c1=O)c1ncc(C#N)cn1 (single isomer, unassigned) [compound 4833]	0.25 µM	0.52 µM	1.04 µM	–	–	–	–

Compound	Skeletal EC25 ([1]; Y75 value (no ‡ mark))	Atrial EC25 ([2]; Y75 value (no ‡ mark))	Ventricular EC25 ([3]; Y75 value (no ‡ mark))	Skeletal EC25 ([1]; Y75 value)	Atrial EC25 [2, 4]	Ventricular EC25 ([3]; Y75 value)	also measured
C[C@H](NC(=O)Cc1cc2c(Cl)c(O)ccc2[nH]c1=O)c1ccc(F)cc1F [compound 91]	3.55 µM	1.38 µM	100.00 µM	–	–	–	–
Cc1ccc([C@@H](CO)NC(=O)Cc2c(C)c3c(C)nccc3[nH]c2=O)cc1 (single isomer, unassigned) [compound 335]	–	–	–	26.39 µM	100.00 µM	100.00 µM	–
Cc1c([C@@H](C)C(=O)N[C@@H](C)c2ccc(F)cc2F)c(=O)[nH]c2ccc(F)c(F)c12 (single isomer, unassigned) [compound 108]	0.05 µM	0.04 µM	0.28 µM	–	–	–	–
Cc1c([C@H](C)C(=O)N[C@@H](C)c2ccc(C#N)cc2F)c(=O)[nH]c2ccnc(C#N)c12 (single isomer, unassigned) [compound 174]	–	–	–	0.08 µM	0.08 µM	0.55 µM	–
CC(NC(=O)C1(c2cc3c(F)c(F)ccc3[nH]c2=O)CC1)c1cccc(C#N)n1 (single isomer, unassigned) [Compound 2570]	–	–	–	–	–	–	Skeletal EC25 [1, 5]: 26.03‡ μM; Atrial EC25 [2, 5]: 100.00‡ μM; Ventricular EC25 [3, 5]: 63.85‡ μM
Cc1c(C(F)(F)C(=O)N[C@H](C)c2ncc(F)cc2F)c(=O)[nH]c2ccc(F)cc12 (single isomer, unassigned) [compound 4819]	1.02 µM	0.28 µM	2.65 µM	–	–	–	–
Cc1c(CC(=O)N[C@@H](C)c2ccc(C#N)cc2F)c(=O)[nH]c2ccc(F)c(C(F)(F)F)c12 [compound 38]	0.02 µM	0.03 µM	0.06 µM	–	–	–	–
C[C@@H](NC(=O)C(F)(F)c1cc2cc(F)ccc2[nH]c1=O)c1nccc(C#N)n1 (single isomer, unassigned) [compound 2559]	100.00 µM	100.00 µM	100.00 µM	–	–	–	–
Cc1c(CC(=O)N[C@@H](C)c2ncc(F)cc2F)c(=O)[nH]c2ccc(O)nc12 (single isomer, unassigned) [compound 223]	–	–	–	16.17 µM	12.99 µM	61.19 µM	–
Cc1c(C(F)(F)C(=O)N[C@H](C)c2ncc(C#N)cc2F)c(=O)[nH]c2ccnc(C#N)c12 (single isomer, unassigned) [compound 3510]	–	–	–	0.16 µM	0.44 µM	1.30 µM	–
N#Cc1cc(F)c2c(c1)OC[C@@H]2NC(=O)C1(c2cc3c(F)c(F)ccc3[nH]c2=O)CC1 (single isomer, unassigned) [compound 4822]	0.08 µM	0.16 µM	0.48 µM	–	–	–	–
Cc1nccc2[nH]c(=O)c(CC(=O)N[C@@H]3CCc4cc(C#N)cc(F)c43)c(C)c12 (single isomer, unassigned) [compound 197]	–	–	–	4.23 µM	2.80 µM	49.43 µM	–
Cc1c(CC(=O)N[C@@H](C)c2ccc(C#N)cc2F)c(=O)[nH]c2cnnc(C#N)c12 [compound 172]	–	–	–	0.04 µM	0.10 µM	3.78 µM	–
Cc1c([C@H](C)C(=O)N[C@@H](C)c2ccc(F)cc2F)c(=O)[nH]c2ccnc(OC(F)(F)F)c12 (single isomer, unassigned) [compound 348]	–	–	–	0.51 µM	0.34 µM	6.44 µM	–
Cc1c(CC(=O)N[C@@H](C)c2ncc(C#N)cc2F)c(=O)[nH]c2ccc(F)c(Cl)c12 (single isomer, unassigned) [compound 2052]	0.08 µM	0.04 µM	0.09 µM	–	–	–	–
